Experimental data: ChEMBL document CHEMBL3045269, “Anti-leukemic activity of sulfonoquinovosyldiacylglyceride (SQDG): a constituent of Azadirachta indica leaves” (Med Chem Res, 2013)

Assays:
Assay type in all cases: functional
K562 [1] = assay: Cytotoxicity against Homo sapiens (human) K562 cells assessed as growth inhibition at 2 ug/ml after 24 hr by MTT assay relative to untreated control; details: K562, 24 h, read-out: GI
K562 [2] = assay: Cytotoxicity against Homo sapiens (human) K562 cells assessed as growth inhibition at 2 ug/ml after 48 hr by MTT assay relative to untreated control; details: K562, 48 h, read-out: GI
U-937 [3] = assay: Cytotoxicity against Homo sapiens (human) U937 cells assessed as growth inhibition at 2 ug/ml after 48 hr by MTT assay relative to untreated control; details: U-937, 48 h, read-out: GI
U-937 [4] = assay: Cytotoxicity against Homo sapiens (human) U937 cells assessed as growth inhibition at 2 ug/ml after 24 hr by MTT assay relative to untreated control; details: U-937, 24 h, read-out: GI

Nc1ccn([C@@H]2O[C@H](CO)[C@@H](O)[C@@H]2O)c(=O)n1 [CYTARABINE]
inhibition of growth at 2 µg/mL (K562 [1]): 39.9%
inhibition of growth at 2 µg/mL (K562 [2]): 65.1%
inhibition of growth at 2 µg/mL (U-937 [3]): 85.1%
inhibition of growth at 2 µg/mL (U-937 [4]): 59.9%
